According to patent publication US6949585B2, “Cyclooctanone derivatives and cyclodecanone derivative, and use thereof” (Eisai Co., Ltd., priority 2001, dated 2005):

Legend:
Format in all cases: cell-based
IL-2 production = IL-2 production by PHA-stimulated human peripheral lymphocytes (ELISA); settings: PHA 10 μl/ml, 48 h, compound 0.1-100 μM
Experimental: Human peripheral lymphocytes were stimulated with mitogen (PHA) to induce IL-2 production. The amount of IL-2 produced was measured to evaluate the inhibitory effect of the present compound. Briefly, human peripheral blood monocyte fraction was isolated in a manner similar to Test Example 1.
The monocytes were suspended in RPM 1640 medium (Gibco BRL) containing 10% FCS and seeded in a petri dish and left at 37° C. for an hour. Then, the cells (lymphocytes) which were not attached to the wall of the petri desh were isolated by centrifugation. The lymphocytes collected were suspended in the medium and seeded at 5×10^5 cell/160 μl in a 96-well plate.
The present compound was added to the lymphocytes cultured and the mixture was left at 37° C. for thirty minutes. Then, the cells were stimulated by adding PHA (Difco) at a final concentration of 10 μl/ml and left at 37° C. for forty eight hours. For control, the cells were used wherein PHA was added to the cell at a final concentration of 10 μl/ml without the present compound.
The amount of IL-2 which was released in the culture supernatant was measured using an ELISA kit (BioSource International). The inhibitory rate (%) of IL-2 production as compared to control was calculated using the following formula from IL-2 amounts thus measured: [formula]
In addition, the concentration of the present compound to inhibit 50% (IC50) was calculated by plotting the inhibitory rate (%) of IL-2 production obtained by varying a final concentration of the present compound of from 0.1 μM to 100 μM.

TNF-α production = TNF-α production by LPS-stimulated human peripheral blood monocytes (ELISA); settings: LPS 10 ng/ml, 18 h, compound 0.1-100 μM
Experimental: (§1) TNF-α and IL-6 production inhibitory activity of the compound of the present invention was evaluated by determining the amounts of TNF-α and IL-6 produced by the human peripheral blood monocyte stimulated with lipopolysaccharide(LPS). Briefly, human peripheral blood monocyte fraction was isolated from the peripheral venous blood from healthy male volunteers by density gradient centrifugation with Ficoll-Paque (Pharmacia). The monocytes were suspended in RPMI 1640 medium (Gibco BRL) containing 10% FCS and seeded at 5×10^5 cell/160 μl in a 96-well plate.
(§2) The present compound was added to the monocytes cultured and the mixture was left at 37° C. for thirty minutes. Then the monocytes were stimulated by adding LPS (Sigma) at a final concentration of 10 ng/ml and left 37° C. for eighteen hours. For control, the cells were used wherein LPS was added to the cell at a final concentration of 10 ng/ml without the present compound.
(§3) The amount of each of TNF-α and IL-6, which were released in the culture supernatant, was measured using an ELISA kit (R & D). The inhibitory rate (%) of TNF-α and IL-6 production as compared to control was calculated using the following formula from the amounts of TNF-α and […] thus measured: [formula]
(§4) In addition, the concentration of the present compound to inhibit 50% (IC50) was calculated by plotting the inhibitory rate (%) of IL-6 and TNF-α production obtained by varying a final concentration of the present compound of from 0.1 μM to 100 μM.

IL-6 production = IL-6 production by LPS-stimulated human peripheral blood monocytes (ELISA); settings: Monocyte, LPS 10 ng/ml, 18 h, compound 0.1-100 μM
Experimental: as §1, §2, §3, §4

O=C1C=CCC(CCc2ccccc2)C[C@@H](O)[C@H]1O (mixture of isomers) [Example 84 (b), (7RS,8RS)-7,8-dihydroxy-5-phenethyl-2-cycloocten-1-one]
IC50 (IL-2 production; Lymphocyte): 3.6 µM | IC50 (TNF-α production; Monocyte): 8.8 µM

O=C1C=CCC(CCc2ccccc2O)C[C@@H](O)[C@H]1O (mixture of isomers) [Example 85 (a), (7RS,8RS)-7,8-dihydroxy-5-[2-(2-hydroxyphenyl)ethyl]-2-cycloocten-1-one]
IC50 (IL-2 production; Lymphocyte): 64.9 µM | IC50 (TNF-α production; Monocyte): 2.2 µM

O=C1/C=C\CCC(Cc2ccccc2)CC[C@@H](O)[C@H]1O (mixture of isomers) [Example 87, Z-(9RS,10RS)-6-benzyl-9,10-dihydroxy-2-cyclodecen-1-one]
IC50 (IL-2 production; Lymphocyte): 3 µM | IC50 (TNF-α production; Monocyte): 12.4 µM

O=C(OC1CC=CC(=O)[C@H](O)[C@H](O)C1)c1ccccc1O (mixture of isomers) [Example 90 (a), (6RS,7RS)-6,7-dihydroxy-5-oxo-3-cyclooctenyl 2-hydroxybenzoate]
IC50 (TNF-α production; Monocyte): 3.4 µM

O=C(OC1CC/C=C\C(=O)[C@H](O)[C@H](O)CC1)c1ccccc1O (mixture of isomers) [Example 92, Z-(7RS,8RS)-7,8-dihydroxy-6-oxo-4-cyclodecenyl (2-hydroxy)benzoate]
IC50 (IL-2 production; Lymphocyte): 1.2 µM | IC50 (TNF-α production; Monocyte): 1.7 µM

COc1ccc(C(=O)OC2CC/C=C\C(=O)[C@H](O)[C@H](O)CC2)c(O)c1 (mixture of isomers) [Example 93, Z-(7RS,8RS)-7,8-dihydroxy-6-oxo-4-cyclodecenyl (2-hydroxy-4-methoxy)benzoate]
IC50 (IL-2 production): 2 µM | IC50 (TNF-α production): 1.8 µM

O=C1C=CCC(Cc2ccccc2)CCC1 (centres unmarked) [Example 4, 5-Benzyl-2-cycloocten-1-one]
IC50 (IL-6 production): 23.3 µM | IC50 (TNF-α production; Monocyte): 13.6 µM

O=C1C=CCC(CCc2ccccc2)CCC1 (centres unmarked) [Example 5, 5-Phenethyl-2-cycloocten-1-one]
IC50 (IL-6 production): 21.6 µM | IC50 (IL-2 production; Lymphocyte): 1.7 µM | IC50 (TNF-α production; Monocyte): 13.7 µM

O=C1C=CCC(CCc2cccc(O)c2)CCC1 (centres unmarked) [Example 18, 5-[2-(3-Hydroxyphenyl)ethyl]-2-cycloocten-1-one]
IC50 (IL-6 production): 6.8 µM | IC50 (IL-2 production; Lymphocyte): 2.1 µM | IC50 (TNF-α production; Monocyte): 5.9 µM

O=C1/C=C\CCC(Cc2ccccc2)CCCC1 (centres unmarked) [Example 22 (a), Z-6-benzyl-2-cyclodecen-1-one]
IC50 (IL-2 production; Lymphocyte): 2.6 µM | IC50 (TNF-α production; Monocyte): 28.1 µM

COc1ccc(C(=O)OC2CC=CC(=O)CCC2)c(O)c1 (centres unmarked) [Example 47, 5-Oxo-3-cyclooctenyl (2-hydroxy-4-methoxy)benzoate]
IC50 (IL-2 production): 0.14 µM | IC50 (TNF-α production): 0.5 µM
